{"source": "patent US20250327794A1", "about": "“FLUOROMETRIC METHODS FOR DETECTION OF ALLERGIC SENSITIVITY TO ENVIRONMENTAL, FOODSTUFF, AND MEDICAMENT STIMULANTS” (CELL SCIENCE SYSTEMS CORPORATION, priority 2022, published 2025)", "assay_type_in_all_cases": "cell-based, human", "key": {"white blood cells": {"tested_on": "white blood cells", "assay": "Propidium iodide (PI) staining by flow cytometry, channel 3 FL3-A", "protocol": "Cell viability determination using DNA staining was incorporated to improve flow cytometry analysis of granulocyte subpopulations. […] Throughout Example 2, additional exogenous stimulants were tested for their ability to instigate granulocyte release of ROS.\nFlow cytometry analysis of human blood samples was performed following exposure to exogenous dust mite (“DM”) stimulant using time course measurements of RH 123 and PI fluorescence. Density plots and histograms were determined for samples containing: control cells only, DHR 123 only, DHR 123+PMA stimulant (positive control), DHR 123+DM stimulant, and DHR 123+3× DM stimulant, following incubation times of 0.5 hours (FIGS. 9A-9J), 1.5 hours (FIGS. 10A-10J), and 2.5 hours (FIGS. 11A-11J), respectively. Propidium iodide staining was used as a measure of cell viability.\nFlow cytometry analysis of human blood samples was performed following exposure to exogenous DM, ragweed pollen (RWP), milk (MLK), cucumber (CUC), and basil (BAS) stimulants using RH 123 and PI fluorescence measurement. Density plots and histograms were determined for samples containing: control cells, DHR 123 only, DHR 123+PMA stimulant, DHR 123+DM stimulant, DHR 123+RWP stimulant (1×: 2.5 μL; 2×: 5.0 μL), DHR 123+MLK stimulant (5 μL), DHR 123+CUC stimulant (5 μL), and DHR 123+BAS stimulant (5 μL), following an incubation times of 0.5, 1.5, and 2.5 hours. See RH 123 (FL1-A) density plots at FIGS. 13A-13H; RH 123 (FL1-A) histograms at FIGS. 14A-14H; propidium iodide (PI) (FL3-A) density plots at FIGS. 15A-15H; PI (FL3-A) histograms at FIGS. 16A-16H).\nDHR 123 and PI flow cytometry blood testing was repeated using increased amounts of stimulant (8 μL of DM stimulant or RWP stimulant per 100 μL blood) and incubated for 2.5 hours."}, "neutrophils": {"tested_on": "neutrophils", "assay": "Neutrophil activation: CD16 surface marker fluorescence (channel 2 FL2-A)", "description": "Dead cells were gated and removed using PI(+) viability marker. The cell surface marker CD33 was used to distinguish the lymphocyte population from the monocyte and granulocyte populations. The cell surface marker CD16 was used to distinguish neutrophil and eosinophil populations from the monocytes and lymphocyte populations. The cell surface marker CD123 was used to distinguish the basophil population. Activated granulocytes were observed using the granulocyte activation surface marker CD63(+). Activated basophil and eosinophil populations were observed using surface markers […], in-tandem with CD63(+). Activated basophils were observed using the surface marker profile of CD63(+)/CD203c(+). Activated eosinophils were observed using the surface marker profile of CD63(+)/CD193(+)/CD203c(+). Activated neutrophils were observed using the surface marker profile of CD63(+)/CD193(−)/CD203(−). Activation of subpopulations was quantified as fold-change compared to the mean of the negative control samples.\nActivation of neutrophils from human blood samples following exposure to exogenous stimulants was investigated using flow cytometry analysis of R123 fluorescence, as well as cell surface markers CD16, CD193, and CD123, and side scattering profiles. Density plots for RH 123 (channel 1; FL1-A), CD16 (channel 2; FL2-A), CD193 (channel 3, FL3-A), and CD123 (channel 4, FL4-A) following exposure to dust mite stimulant for 1.5 hours are shown in FIGS. 19A-19L (DHR 123 only: FIGS. 19A-19D; DHR 123+PMA stimulant: FIGS. 19E-19H; and DHR 123+DM stimulant: FIGS. 19I-19L). […] Histograms of CD16 fluorescence at 1.5 hours after stimulant exposure are shown in FIGS. 20A-20C (DHR 123 control: FIG. 20A, MFI=27956; DHR 123+PMA stimulant: FIG. 20B, MFI=11120; and DHR 123+DM stimulant: FIG. 20C, MFI=16358). […]"}, "basophils": {"tested_on": "basophils", "assay": "Basophil activation: RH 123 signal in CD123(+)/CD16(-) gated cells", "description": "Activation of basophils from human blood samples following exposure to exogenous stimulants was investigated using flow cytometry analysis of RH 123 fluorescence, as well as cell surface markers CD16 and CD193, and side scattering profiles. CD123 is a cell surface marker that is expressed on basophils and eosinophils. FIGS. 25A-25C show density plots of CD123 signals at channel 4 (FL4-A) for DHR 123 only (FIG. 25A), DHR 123+PMA stimulant (FIG. 25B), and DHR 123+DM stimulant exposed group (FIG. 25C) following exposure to stimulant for 1.5 hours. FIGS. 25D-25F show corresponding gated RH 123 results (MFI=2055, MFI=6388, and MFI=3023, respectively). FIGS. 26A-26C show density plots of CD123 signals at channel 4 (FL4-A) for DHR 123 control group (FIG. 26A), DHR 123 and dust mite stimulant-exposed group (FIG. 26B), and DHR 123 and ragweed pollen stimulant-exposed group (FIG. 26C) following exposure to stimulant for 2.5 hours. FIGS. 26D-26F show corresponding gated RH 123 results (MFI=1800, MFI=3299, and MFI=1270, respectively).\nBasophil population was selected by having CD123(+)/CD16(−) expression profiles, along with lower side scattering (shown in FIGS. 25A-25C and FIGS. 26A-26C as encircled). In contrast to reducing eosinophil population for different allergen treated groups, basophil population appeared stable over the experiment time period (1.5 hours and 2.5 hours)."}, "[1]": {"conditions": "1-3 hr incubation, DHR 123 and PMA"}}}
{"smiles": "CCCCCCCCCCCCCC(=O)O[C@@H]1[C@@H](C)[C@@]2(O)[C@@H](C=C(CO)C[C@]3(O)C(=O)C(C)=C[C@@H]23)[C@@H]2C(C)(C)[C@]12OC(C)=O", "note": "[PMA, Phorbol-12-Myristate-13-Acetate]", "values": [{"measurement": "MFI (2.5 h) FL3-A", "setting": "white blood cells; PMA or DM 2 μL/100 μL blood (Table 4)", "result": "17,902.33"}, {"measurement": "Mean FL3-A (2.5 h)", "setting": "white blood cells; PMA, RWP1 2.5 μL, MLK, CUC, BAS 5 μL per 100 μL blood (Table 6)", "result": "34,645.62"}, {"measurement": "MFI (2.5 h) FL3-A", "setting": "white blood cells; increased stimulant, 8 μL DM or RWP per 100 μL blood (Table 7)", "result": "11,914.00"}, {"measurement": "CD16 fluorescence signal intensity over time", "setting": "neutrophils; [1]", "result": "decreased signal intensity over time"}, {"measurement": "expression of CD16 surface marker (in words)", "setting": "neutrophils; 1.5 hours after stimulant exposure", "result": "greatly reduced"}, {"measurement": "mean fluorescent intensity (MFI) of CD16 surface marker (channel 2; FL2-A)", "setting": "neutrophils; 1.5 hours exposure, DHR 123 only control MFI=27956", "result": 11120}, {"measurement": "CD123 signal over incubation time", "setting": "basophils; [1]", "result": "decreased"}, {"measurement": "gated RH 123 signal MFI, CD123 gated", "setting": "basophils; 1.5 hours exposure, DHR 123 only control MFI=2055", "result": 6388}, {"measurement": "basophil activation (in words)", "setting": "basophils; RH 123 signal vs DHR 123 only control", "result": "induced the activation of basophils"}]}
